Measurements taken from article PMC6691788, “Design and synthesis of phthalazine-based compounds as potent anticancer agents with potential antiangiogenic activity via VEGFR-2 inhibition” (Journal of Enzyme Inhibition and Medicinal Chemistry, 2019).

How the values were obtained:
[1] = test system: SNB-19; test: NCI 60 cell panel SRB screen; assay type: cell-based; conditions: Homo sapiens
[2] = test system: DU-145; test: NCI 60 cell panel SRB screen; assay type: cell-based; conditions: Homo sapiens
[3] = test system: UACC-62; test: NCI 60 cell panel SRB screen; assay type: cell-based
[4] = test system: HCT-116; test: NCI 60 cell panel SRB screen; assay type: cell-based; conditions: Homo sapiens
[5] = test system: SK-MEL-5; test: NCI 60 cell panel SRB screen; assay type: cell-based; conditions: Homo sapiens
[6] = test system: MDA-MB-435; test: NCI 60 cell panel SRB screen; assay type: cell-based; conditions: Homo sapiens
[7] = test system: HOP-62; test: NCI 60 cell panel SRB screen; assay type: cell-based; conditions: Homo sapiens
[8] = test system: U251; test: NCI 60 cell panel SRB screen; assay type: cell-based; conditions: Homo sapiens, U-251
[9] = test system: MDA-MB 231/ATCC; test: NCI 60 cell panel SRB screen; assay type: cell-based; conditions: Homo sapiens
[10] = test system: HCT-15; test: NCI 60 cell panel SRB screen; assay type: cell-based; conditions: Homo sapiens
[11] = test system: CAKI-1; test: NCI 60 cell panel SRB screen; assay type: cell-based, human
[12] = test system: A498; test: NCI 60 cell panel SRB screen; assay type: cell-based; conditions: Homo sapiens
[13] = test system: full NCI 60 cell panel; test: NCI 60 cell panel SRB screen, whole panel; assay type: cell-based, human; conditions: Homo sapiens, 60 cell
Description: Aiming to evaluate the general antitumour activity of the synthesised phthalazines, the structures of the final compounds were submitted to National Cancer Institute “NCI” (www.dtp.nci.nih.gov), Bethesda, Maryland, USA. In vitro NCI anticancer screening involves two-stage process, the first stage started with the evaluation of the selected candidates against the full NCI 60 cell lines panel representing leukaemia, non-small cell lung cancer, melanoma, colon, CNS, breast, ovarian, renal and prostate cancers at a single dose of 10 µM. NCI selection is based on degree of structure variation and application of computer modelling techniques to prioritise compounds based on their ability to add diversity to the NCI small molecule compound collection.
Eight compounds (6b, 6e, 7b, 13a, 13c, 16a, 16d and 17a) were selected by NCI for further 5 log dose screening against full NCI 60 cell panel. All the 60 cell lines, representing nine tumour subpanels (leukaemia, non-small cell lung cancer, colon cancer, CNS cancer, prostate cancer, melanoma, ovarian cancer, renal cancer and breast cancer) which were incubated at five different concentrations (0.01, 0.1, 1, 10 and 100 µM) of each of the test compounds. The outcomes were used to create log concentration vs % growth inhibition curves, then three response parameters (GI50, TGI and LC50) were calculated for each cell line, (Tables S4 and S5 in Supplementary material).
The human tumor cell lines of the cancer-screening panel were grown in RPMI 1640 medium containing 5% fetal bovine serum and […] L-glutamine. For a typical screening experiment, cells are inoculated into 96 well microtiter plates in 100 ml at plating densities ranging from 5000 to 40,000 cells/well depending on the doubling time of individual cell lines. After cell inoculation, the microtiter plates are incubated at 37 °C, 5% CO2, 95% air and 100%
relative humidity for 24 h prior to addition of experimental drugs. After 24 h, two plates of each cell line are fixed in situ with TCA, to represent a measurement of the cell population for each cell line at the time of drug addition (Tz). Experimental drugs are dissolved in dimethyl sulfoxide at 400-fold the desired final maximum test concentration and stored frozen prior to use. At the time of drug addition, an aliquot of frozen concentrate is thawed and diluted to twice the desired final maximum test concentration with complete medium containing […] Gentamicin. Additional four, 10-fold or ½log serial dilutions are made to provide a total of five drug concentrations plus control. Aliquots of […] of these different drug dilutions are added to the appropriate microtiter wells already containing 100 ml of medium, resulting in the required final drug concentrations. Following drug addition, the plates are incubated for an additional 48 h at 37 °C, 5% CO2, 95% air, and 100% relative humidity. For adherent cells, the assay is terminated by the addition of cold TCA. Cells are fixed in situ by the gentle addition of […] of cold 50% (w/v) TCA (final concentration,10% TCA) and incubated for 60 min at 4 °C. The supernatant is discarded, and the plates are washed five times with tap water and air dried. Sulforhodamine B (SRB) solution (100 ml) at 0.4% (w/v) in 1% acetic acid is added to each well, and plates are incubated for 10 min at room temperature. After staining, unbound dye is removed by washing five times with 1% acetic acid and the plates are air dried. Bound stain is subsequently dissolved with 10 μM trizma base, and the absorbance is read on an automated plate reader at a wavelength of 515 nm. For suspension cells, the methodology is the same except that the assay is terminated by fixing settled cells at the bottom of the wells by gently adding […] of 80% TCA (final concentration, 16% TCA). […]

[14] = test system: SF-295; test: NCI 60 cell panel SRB screen; assay type: cell-based; conditions: Homo sapiens
[15] = test system: SN12C; test: NCI 60 cell panel SRB screen; assay type: cell-based; conditions: Homo sapiens
[16] = test system: ACHN; test: NCI 60 cell panel SRB screen; assay type: cell-based; conditions: Homo sapiens
[17] = test system: M14; test: NCI 60 cell panel SRB screen; assay type: cell-based; conditions: Homo sapiens
[18] = test system: HS 578T; test: NCI 60 cell panel SRB screen; assay type: cell-based; conditions: Homo sapiens
[19] = test system: MCF7; test: NCI 60 cell panel SRB screen; assay type: cell-based; conditions: Homo sapiens
[20] = 5 log dose, 48 h, read-out: LC50 (the source's name)
[21] = single dose 10 μM, read-out: percent cell growth promotion

SMILES: O=C(Nc1ccc(Cl)cc1)Nc1ccc(Oc2nncc3ccccc23)cc1 [Compound 7b, 1–(4-Chlorophenyl)-3–(4-(phthalazin-1-yloxy)phenyl)urea]
- GI50 ([1]; SNB-19, 5 log dose): 1.74 µM
- IC (TGI) ([1]; SNB-19, 5 log dose): 4.79 µM
- CC50 ([1]; SNB-19, 5 log dose, 48 h, read-out: LC50 (the source's name)): 58.3 µM
- activity at 10 µM ([1]; SNB-19, single dose 10 μM, read-out: percent cell growth promotion): -76.5%
- GI50 ([2]; DU-145, 5 log dose): 0.73 µM
- IC (TGI) ([2]; DU-145, 5 log dose): 2.08 µM
- CC50 ([2]; DU-145, 5 log dose, 48 h, read-out: LC50 (the source's name)): 4.88 µM
- activity at 10 µM ([2]; DU-145, single dose 10 μM, read-out: percent cell growth promotion): 11.2%
- GI50 ([3]; Homo sapiens, UACC-62): 1.08 µM
- activity at 10 µM ([3]; Homo sapiens, UACC-62, read-out: percent cell growth promotion): -14.3%
- CC50 ([3]; Homo sapiens, UACC-62, 5 log dose, 48 h, read-out: LC50 (the source's name)): 14 µM
- TGI ([3]; UACC-62, 5 log dose): 3.46 µM
- GI50 ([4]; HCT-116, 5 log dose): 0.32 µM
- IC (TGI) ([4]; HCT-116, 5 log dose): 1.2 µM
- LC50 (lethal concentration 50%) ([4]; HCT-116, 5 log dose, 48 h): 4.65 µM
- activity at 10 µM ([4]; HCT-116, single dose 10 μM, read-out: percent cell growth promotion): -56.9%
- GI50 ([5]; SK-MEL-5): 1.02 µM
- IC (TGI) ([5]; SK-MEL-5, read-out: TGI): 2.81 µM
- activity at 10 µM ([5]; SK-MEL-5, read-out: percent cell growth promotion): -43.3%
- CC50 ([5]; SK-MEL-5, 5 log dose, 48 h, read-out: LC50 (the source's name)): 6.56 µM
- GI50 ([6]; MDA-MB-435): 0.29 µM
- IC (TGI) ([6]; MDA-MB-435, read-out: TGI): 1.07 µM
- activity at 10 µM ([6]; MDA-MB-435, read-out: percent cell growth promotion): -33.3%
- CC50 ([6]; MDA-MB-435, 5 log dose, 48 h, read-out: LC50 (the source's name)): 5.65 µM
- GI50 ([7]; HOP-62, 5 log dose): 1.09 µM
- IC (TGI) ([7]; HOP-62, 5 log dose): 4.32 µM
- CC50 ([7]; HOP-62, 5 log dose, 48 h, read-out: LC50 (the source's name)): 47.7 µM
- activity at 10 µM ([7]; HOP-62, single dose 10 μM, read-out: percent cell growth promotion): 26.7%
- GI50 ([8]; U251, 5 log dose): 1.01 µM
- IC (TGI) ([8]; U251, 5 log dose): 2.38 µM
- CC50 ([8]; U251, 5 log dose, 48 h, read-out: LC50 (the source's name)): 5.61 µM
- activity at 10 µM ([8]; U251, single dose 10 μM, read-out: percent cell growth promotion): -31.1%
- GI50 ([9]; MDA-MB-231): 0.39 µM
- IC (TGI) ([9]; MDA-MB-231, read-out: TGI): 3.68 µM
- activity at 10 µM ([9]; MDA-MB-231, read-out: percent cell growth promotion): -25.2%
- CC50 ([9]; MDA-MB-231, MDA-MDA 231/ATCC, 5 log dose, 48 h, read-out: LC50 (the source's name)): 42.4 µM
- GI50 ([10]; HCT-15, 5 log dose): 0.96 µM
- IC (TGI) ([10]; HCT-15, 5 log dose): 3.08 µM
- CC50 ([10]; HCT-15, 5 log dose, 48 h, read-out: LC50 (the source's name)): 9.67 µM
- activity at 10 µM ([10]; HCT-15, single dose 10 μM, read-out: percent cell growth promotion): 2.76%
- TGI ([11]; CAKI-1, 5 log dose): 8.70 µM
- GI50 ([11]; Homo sapiens, CAKI-1, 5 log dose): 2.72 µM
- CC50 ([11]; Homo sapiens, CAKI-1, 5 log dose, 48 h, read-out: LC50 (the source's name)): 43.9 µM
- activity at 10 µM ([11]; Homo sapiens, CAKI-1, single dose 10 μM, read-out: percent cell growth promotion): 18.7%
- GI50 ([12]; A498, 5 log dose): 1.5 µM
- IC (TGI) ([12]; A498, 5 log dose): 3.06 µM
- CC50 ([12]; A498, 5 log dose, 48 h, read-out: LC50 (the source's name)): 6.26 µM
- activity at 10 µM ([12]; A498, single dose 10 μM, read-out: percent cell growth promotion): 24.5%
- activity at 10 µM ([13]; mean over the panel, single dose 10 μM, read-out: Mean percent cell growth promotion): -6.99%
- inhibition at 10 µM ([13]; single dose 10 µM, full panel, read-out: mean growth inhibition): 107%
- GI50 ([14]; SF-295, 5 log dose): 2.54 µM
- IC (TGI) ([14]; SF-295, 5 log dose): 6.27 µM
- CC50 ([14]; SF-295, 5 log dose, 48 h, read-out: LC50 (the source's name)): 36.9 µM
- activity at 10 µM ([14]; SF-295, single dose 10 μM, read-out: percent cell growth promotion): 40.7%
- GI50 ([15]; 5 log dose): 1.03 µM
- IC (TGI) ([15]; 5 log dose): 3.58 µM
- CC50 [15, 20]: > 100 µM
- activity at 10 µM [15, 21]: -3.83%
- GI50 ([16]; 5 log dose): 1.05 µM
- IC (TGI) ([16]; 5 log dose): 2.33 µM
- CC50 [16, 20]: 5.18 µM
- activity at 10 µM [16, 21]: -15.1%
- GI50 ([17]; M14): 1.12 µM
- IC (TGI) ([17]; M14, read-out: TGI): 3.16 µM
- activity at 10 µM ([17]; M14, read-out: percent cell growth promotion): 7.3%
- CC50 ([17]; M14, 5 log dose, 48 h, read-out: LC50 (the source's name)): 8.93 µM
- GI50 ([18]; Hs-578T): 0.69 µM
- IC (TGI) ([18]; Hs-578T, read-out: TGI): 47 µM
- activity at 10 µM ([18]; Hs-578T, read-out: percent cell growth promotion): 37.5%
- CC50 ([18]; HS 578T, 5 log dose, 48 h, read-out: LC50 (the source's name)): > 100 µM
- IC (TGI) ([19]; MCF7, read-out: TGI): 1.89 µM
- activity at 10 µM ([19]; MCF7, read-out: percent cell growth promotion): 14.3%
- GI50 ([19]; MCF7, 5 log dose, read-out: GI50): 0.32 µM
